In patent US5968751A, “Method for detecting the presence of protein C antibody in a fluid sample” (The Scripps Research Institute, priority 1997, dated 1999):
Where two headings read alike, the source gives them in different places. No end group written: not given here.

Experiments:
Type in all cases: biochemical
Factor Xa = target: T1, Factor Xa (Homo sapiens, UniProt P00742); experiment: Factor Xa clotting activity in NHP without added APC (Factor Xa-1 Stage clotting assay)
T1 construct: purchased Enzyme Research Laboratories, Southbend, Ind
T1 sequence (P00742 41-179 limits assumed): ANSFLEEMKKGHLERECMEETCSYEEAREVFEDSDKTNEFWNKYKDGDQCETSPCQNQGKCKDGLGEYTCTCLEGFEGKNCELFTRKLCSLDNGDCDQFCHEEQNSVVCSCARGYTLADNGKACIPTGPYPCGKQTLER
T1 sequence (P00742 235-488 limits assumed): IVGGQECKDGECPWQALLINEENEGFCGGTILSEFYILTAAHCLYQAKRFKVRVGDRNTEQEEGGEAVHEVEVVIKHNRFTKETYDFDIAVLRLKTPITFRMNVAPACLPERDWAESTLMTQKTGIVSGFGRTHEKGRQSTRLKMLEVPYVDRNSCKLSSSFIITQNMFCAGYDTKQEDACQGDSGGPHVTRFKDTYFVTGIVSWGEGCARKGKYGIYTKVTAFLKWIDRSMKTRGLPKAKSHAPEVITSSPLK

Factor IXa = Factor IXa (Homo sapiens, UniProt P00740); experiment: Factor IXa-1 Stage clotting assay
Factor IXa, sequence (P00740 47-191 limits assumed): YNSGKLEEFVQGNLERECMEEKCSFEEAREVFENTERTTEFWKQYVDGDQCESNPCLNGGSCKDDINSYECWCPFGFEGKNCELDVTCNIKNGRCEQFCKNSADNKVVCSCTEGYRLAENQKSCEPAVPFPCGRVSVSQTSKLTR
Factor IXa, sequence (P00740 227-461 limits assumed): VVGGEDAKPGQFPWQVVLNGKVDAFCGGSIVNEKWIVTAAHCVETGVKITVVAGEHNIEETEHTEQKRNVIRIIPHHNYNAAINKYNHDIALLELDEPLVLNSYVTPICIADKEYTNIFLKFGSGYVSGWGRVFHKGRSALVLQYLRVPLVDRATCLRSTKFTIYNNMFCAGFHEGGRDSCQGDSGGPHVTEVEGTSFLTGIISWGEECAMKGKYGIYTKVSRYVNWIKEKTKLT
Procedure: The Factor IXa-1 Stage assay was conducted essentially as the Factor Xa-1 Stage clotting assay above, except that Factor Xa was omitted, and Factor IXa was added in its place. In that assay, the IC50 for peptides X404-418, X415-429, IX395-409, IX400-414, IX315-330, and IX321-335 were 50, 30, 25, 50, 30 and 30.

tenase = target: T2, tenase (Homo sapiens, UniProt P00740); experiment: tenase assay (Factor Xa generation); conditions: read-out: IC50 inhibition of tenase
T2 construct: 30 μl of 3.5 nM factor IXaβ (Enzyme Research Labs) in BBS+OV; purchased Enzyme Research Labs (factor IXaβ, factor X); Armour Pharmaceutical, Chicago (Monoclate P)
T2 sequence (P00740 47-191): as the sequence (P00740 47-191 limits assumed) above
T2 sequence (P00740 227-461): as the sequence (P00740 227-461 limits assumed) above
Procedure: The tenase assay was conducted both in the presence and absence of Factor VIIIa. The procedure for the tenase assay varied depending on this variable and is described hereafter.
Peptides prepared in Example 1 were dissolved in water and then 1/2 into 50 mM Barbital, 200 mM NaCl, 0.2% NaN3, 2.5 mg/ml Ovalbumin (5 times recrystallized, salt free, from American Biorganics Inc., New York, pH=7.5). […]. Before using them, they were made 250 μM into BBs +1.25 mg/ml Ovalbumin (BBS+OV) containing CaCl2 for a final concentration of 25 mM and they were preincubated for 10 minutes at 37° C. These vesicles were allowed to cool to room temperature before being added to the reaction mixture. Monoclate P (Armour Pharmaceutical, Chicago) 114 U VIII:C/ml frozen in water was thawed at 37° C. and immediately diluted to 6 U/ml into BBS+OV (22° C.). A 0.35 nM thrombin-containing solution (Enzyme Research Labs., Southbend, Ind.) was prepared by admixing 1/100 volume of stock solution containing 35 nM in BBS+OV, and maintained for 3 minutes at 22° C. Thrombin activity was stopped by adding 1/100 volume of a 50 μM stock solution in 1 mM HCl of Phe-Pro-Arg-Chloromethyl ketone (PPACK, Bachem Feinchmikallen AG, Bubendorf, Switzerland). […] The thrombin treated Monoclate P was used immediately in the Xa generation assay.
For the assay, 30 μl of peptide dilutions or BBS+OV as 0 μM peptide control were admixed with 30 μl of thrombin-treated Monoclate P and maintained 10 minutes at 22° C. Then 30 μl of Cacl2 -phospholipid vesicles prepared as described above were added, followed immediately by 30 μl of 3.5 nM factor IXaβ (Enzyme Research Labs) in BBS+OV. The reaction was started by adding 30 μl of 250 nM factor X (Enzyme Research Labs) in BBS+OV. All reagents were at 22° C.
Aliquots of 20 μl were drawn at time 0, 1, 2, 3, 4 and 5 minutes of maintenance at 22° C. and diluted to 160 μl of 50 mM TrisHCl, 100 mM NaCl, 5 mM EDTA and 0.1 mg/ml Ovalbumin pH=8.0. Once all aliquots were drawn, 20 μl 2.0 mM S-2765 were added and the increase of A 405 at 22° C. was recorded in a model EL 312 Microplate Biokinetics Reader (BIO-TEK Instruments Inc., Vermont).
No amidolytic activity was observed when factor X was omitted from the reaction mixture.
Phospholipid vesicles prepared as described above were admixed with BBS+OV containing CaCl2 to obtain final concentrations of 312.5 μM vesicles and 20 mM CaCl2, and were premaintained for 10 minutes at 37° C. Before admixing, all the reagents were maintained for 5 minutes in a 37° C. waterbath.
For the assay, 100 μl of the phospholipid CaCl2 mix were admixed with 100 μl of peptide dilutions in BBS+OV or BBS+OV (as 0 μM peptide control) and 25 μl of 100 nM factor IXaβ in BBS+OV. The reaction was started immediately by adding 25 μl of 10 μM factor X in BBS+OV. All experiments were done at 37° C.
Aliquots of 40 μl were drawn at time 0, 5, 10, 15, 20 and 25 minutes of incubation at 37° C. and diluted to 140 μl 50 mM TrisHCl, 100 mM NaCl, 10 mM EDTA, and 1.25 mg/ml Ovalbumin pH=8.0. Once all aliquots were drawn, 20 μl 20.0 mM S-2765 were added and the increase of A 405 at 22° C. was recorded in a model EL 312 Microplate Biokinetics Reader.

APC = APC (Homo sapiens, UniProt P04070); experiment: APTT and Xa-1-stage coagulation assays, inhibition of APC anticoagulant activity; set-up: Protein C consists of a 155 amino acid residue light chain and a 262 amino acid residue heavy chain; from tissue; host or cells: human plasma factor IX concentrate; conditions: read-out: IC90 ** μM (concentration of peptide that inhibits 90% of APC anticoagulant activity)
APC, sequence (P04070 43-197 limits assumed): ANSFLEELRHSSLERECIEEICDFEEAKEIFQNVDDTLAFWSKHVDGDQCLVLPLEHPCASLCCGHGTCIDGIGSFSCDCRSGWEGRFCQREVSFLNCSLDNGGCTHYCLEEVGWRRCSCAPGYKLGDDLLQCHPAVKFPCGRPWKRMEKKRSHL
APC, sequence (P04070 212-450 limits assumed): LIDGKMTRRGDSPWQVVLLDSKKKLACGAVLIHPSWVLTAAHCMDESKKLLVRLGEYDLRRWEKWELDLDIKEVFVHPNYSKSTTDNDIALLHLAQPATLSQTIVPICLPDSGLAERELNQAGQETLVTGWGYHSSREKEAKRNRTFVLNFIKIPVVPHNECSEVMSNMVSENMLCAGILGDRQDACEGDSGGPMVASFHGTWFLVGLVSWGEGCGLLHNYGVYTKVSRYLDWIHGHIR
Procedure: The effect of the synthetic peptides on APC anticoagulant activity were determined using the APTT assay in the presence of either normal citrate anticoagulated plasma (NHP) or protein S depleted plasma (PSDP). The assays were performed essentially as described. See Marlar et al., Blood, 59:1067-1072 […]; Suzuki et al., J. Biol. Chem., 258:163-168 (1983); Gruber et al., Blood, 73:639-642 (1989); Ohlin et al., Biochem., 29:644-651 (1990). NHP was purchased from George King Bio-Medical, Inc. (Overland Park, Kans.). PSDP was prepared from a normal human citrate-anticoagulated plasma pool from ten healthy donors. Protein S was immunodepleted from the NHP by immunoaffinity chromatography of NHP over an anti-protein S antibody column to form PSDP. The anti-protein S antibody column was prepared by coupling 100 mg of a monoclonal, high-affinity, calcium-independent anti-PS antibody, designated S7, to 30 ml of CNBr-activated Sepharose 4B (Pharmacia) as described in Example 2cl).
For the APTT assay, APC was prepared as described in Example 2c2). […] The concentration of the APC used in the assay was initially optimized with respect to the sensitivity of the assay towards APC-induced prolongation of clotting time compared to clotting time without APC.
Once the optimal concentration of APC was determined, peptides from the heavy and light chains of PC and control scrambled peptides listed below in Example 5a2) in Tables 6 and 7 were then separately admixed for a final concentration of 500 μM with 10 nM APC in 100 μl of TBS-BSA at pH 7.4 to form peptide-APC admixtures. Peptides were prepared as described in Example 1. The resulting admixtures were maintained for ten minutes at 37° C. Separate aliquots of peptides maintained under the same conditions in the absence of APC served as controls for the inhibitory effect of synthetic peptides on APC anticoagulant activity. After the maintenance period, 100 μl of NHP and 100 μl APTT-reagent Thrombosil (Ortho Diagnostics, Raritan, N.J.) were admixed into each peptide admixture and maintained for 200 seconds at 37° C. to form a pre-coagulation admixture. In some experiments, PSDP was used in the place of NHP to determine the effect of Protein S on the assay system. Coagulation was then initiated by the admixture of 100 μl of 30 mM CaCl2 in TBS prewarmed to 37° C. to each of the pre-coagulation admixtures. The time for clot formation was measured by an Electra 700 Automatic Coagulation Timer (Medical Laboratory Automation, Inc., Mount Vernon, N.Y.). Each peptide's effect was determined in duplicate.
For peptides at a concentration of 500 μM that inhibited at least 50% of APC anticoagulant activity, analysis of dose-response was subsequently conducted.
For testing the inhibition of the synthetic peptides on APC activity described above, Xa-1-stage coagulation assays were also performed as described. See Seegers et al., Thrombosis Res., 13:233-243 (1978); Marlar et al., supra; and Walker et al., J. Biol. Chem., 265:1484-1489 (1990).

Substance	IC50 (Factor Xa)	IC50 (Factor IXa)	IC50 (tenase; absence of VIIIa)	IC50 (tenase; presence of Factor VIIIa)	IC90 (APC)
GKGQPSVLQVVNLPI-NH2 [PT473-487, Gly-Lys-Gly-Gln-Pro-Ser-Val-Leu-Gln-Val-Val-Asn-Leu-Pro-Ile]	25 µM	–	–	–	–
HKGRSALVLQYLRVPL-NH2 [IX315-330, His-Lys-Gly-Arg-Ser-Ala-Leu-Val-Leu-Gln-Tyr-Leu-Arg-Val-Pro-Leu]	–	30 µM	40 to 60 µM	~2 µM	–
YGIYTKVSRYVNWIK-NH2 [IX395-409, Tyr-Gly-Ile-Tyr-Thr-Lys-Val-Ser-Arg-Tyr-Val-Asn-Trp-Ile-Lys]	–	25 µM	40 to 60 µM	~6 µM	–
LVLQYLRVPLVDRAT-NH2 [IX321-335, Leu-Val-Leu-Gln-Tyr-Leu-Arg-Val-Pro-Leu-Val-Asp-Arg-Ala-Thr]	–	30 µM	–	100 to 140 µM	–
VTAFLKWIDRSMKTR-NH2 [X415-429, Val-Thr-Ala-Phe-Leu-Lys-Trp-Ile-Asp-Arg-Ser-Met-Lys-Thr-Arg]	115 µM	30 µM	–	~45 µM	–
NLKETWTANVGKGQP [PT463-478]	> 500 µM	–	–	–	–
YGFYTHVFRLKKWIQ-NH2 [PT557-571, Tyr-Gly-Phe-Tyr-Thr-His-Val-Phe-Arg-Leu-Lys-Lys-Trp-Ile-Gln]	50 µM	–	–	–	–
EKGRQSTRLKMLEVPY-NH2 [X329-344, Glu-Lys-Gly-Arg-Gln-Ser-Thr-Arg-Leu-Lys-Met-Leu-Glu-Val-Pro-Tyr]	500 µM	–	–	–	–
QVVNLPIVERPVSKD-NH2 [PT481-495, Gln-Val-Val-Asn-Leu-Pro-Ile-Val-Glu-Arg-Pro-Val-Ser-Lys-Asp]	> 500 µM	–	–	–	–
ARKGKYGIYTKVTAF-NH2 [X404-418, Ala-Arg-Lys-Gly-Lys-Tyr-Gly-Ile-Tyr-Thr-Lys-Val-Thr-Ala-Phe]	50 µM	50 µM	–	~150 µM	–
VLNFIKIPVVPHNEC-NH2 [PC317-331]	–	–	–	–	500 µM
KVSRYVNWIKEKTKL-NH2 [IX400-414, Lys-Val-Ser-Arg-Tyr-Val-Asn-Trp-Ile-Lys-Glu-Lys-Thr-Lys-Leu]	–	50 µM	–	100 to 140 µM	–
